Columns and labels:
[1] = test system: isolated porcine coronary arteries; assay: Activities against endothelin-induced contraction of isolated porcine coronary arteries; design: species or system pig
Method: Activities against endothelin-induced contraction of isolated porcine coronary arteries
(§1) The coronary artery of pig was extracted, and a spiral preparation having a width of 1 mm and a length of 10 mm was prepared therefrom. The preparation having the endothelial cells denuded, was hanged in a 5 ml organ bath filled with a Krebs.Heneseleit solution saturated with a gas mixture of 95% O2 and 5% CO2, and a change in the tension was isometrically measured and recorded.
(§2) Endothelin-1 was added into the organ bath in a cumulatively increasing manner, whereby the influence of a compound of the present invention to the concentration-response curve for endothelin-1 was examined. The compound was added into the organ bath 20 minutes prior to the addition of endothelin-1.

[2] = test system: isolated rabbit iliac arteries; assay: Activities against endothelin-induced contraction of isolated rabbit iliac arteries
Method: Activities against endothelin-induced contraction of isolated rabbit iliac arteries
as §1, with “iliac” for “coronary”, “rabbit” for “pig”, “isolated,” for “extracted,”, “placed” for “hanged”, “Krebs.Henseleit” for “Krebs.Heneseleit”
as §2

ETA receptor = assay: Endothelin binding inhibition test to ETA receptor (porcine aorta smooth muscle membranes, 125I-endothelin-1); conditions: at 1.1 μM
Method: Endothelin binding inhibition test to ETA receptor
(§3) The smooth muscle tissue of porcine aorta was homogenized in a buffer solution of 10 mM MOPS, pH 7.4, at 4° C. by a polytron. To the homogenate, sucrose was added to a concentration of 20%, and the mixture was centrifuged at 1,000×g for 15 minutes, and the supernatant was further centrifuged at 10,000×g for 15 minutes. The supernatant thereof was further centrifuged at 90,000×g for 40 minutes. The membrane precipitate thereby obtained was suspended in a buffer solution of 5 mM HEPES/Tris, pH 7.4, at a concentration of 25 mg/ml.
(§4) Then, 16 μl of this membrane suspension was added to 340 μl of 50 mM tris/HCl buffer, pH 7.4, containing […] calcium chloride, 10 μM magnesium chloride, 0.1 mM PMSF, 1 μM pepstatin A, 2 μM leupeptin, 1 mM 1,10-phenanthroline and 0.1% bovine serum albumin. To this suspension, 4 μl of (A) endothelin-1 (for nonspecific binding; 0.2 μM as the final concentration), (B) buffer solution A (for total control binding), or (C) a test compound (1.1 μM as the final concentration), was added. Further, to each suspension, 40 μl of ^125 I-endothelin-1 (12000-18000 cpm) was added. […] Then, the radioactivity trapped by the glass filter was measured, and the ^125 I-endothelin-1 binding inhibition D (%) at 1.1 μM of the test compound was determined by the following equation. […]

human ETA receptor = assay: Endothelin binding inhibition test to human ET receptor (ETA); conditions: 1.1 μM; human cell membranes (SK-N-MC or Girardi heart cells)
Method: (§5) Endothelin binding inhibition test to human ET receptor
(§6) The human neuroblastoma SK-N-MC cells or the human Girardi heart cells purchased from Dainippon Seiyaku (Japan) were cultured in minimal essential medium supplemented with fetal calf serum. The cells were collected and homogenized in 10 mM MOPS buffer (pH 7.4) containing 154 mM NaCl, 10 mM KCl, 0.8 mM CaCl2 and 20% sucrose at 4° C. using a polytron homogenizer. The homogenate was then centrifuged at 1,000×gfor 15 minutes. The supernatant was centrifuged at 100,000×g for 1 hour at 4° C. Then the pellet was washed with 5 mM Hepes/Tris buffer (pH 7.4). The resulting membranes were incubated with [^125 I]endothelin-1 in the presence of each test compound or vehicle (1% dimethyl sulfoxide) in 50 mM Tris/HCl buffer (pH 7.4) containing 0.1 mM phenylmethanesulfonyl fluoride, 1 μM pepstatin, 2 μM leupeptin, 1 mM 1,10-phenanthroline, 1 mM EDTA, 10 μM CaCl2, 10 μM MgCl2 and 0.1% BSA in a total volume of 0.4 ml. After 4 hours incubation, cold 5 mM Hepes/Tris buffer (pH 7.4) containing 0.3% BSA (Buffer A) was added to the mixture. Free and bound [^125 I]endothelin-1 were separated by filtration using Whatman GF/C glass fiber filters. After the filtration, the filters were washed with buffer A, and the radioactivity on the filters was measured in a γ counter. Nonspecific binding was determined in the presence of 200 nM endothelin-1. […]

human ETB receptor = assay: Endothelin binding inhibition test to human ET receptor (ETB); conditions: 1.1 μM; human cell membranes (SK-N-MC or Girardi heart cells)
Method: as §5, §6

ETB receptor = assay: Endothelin binding inhibition test to ETB receptor (porcine cerebellum membranes, 125I-endothelin-1); conditions: at 1.1 μM
Method: Endothelin binding inhibition test to ETB receptor
as §3, with “cerebellum” for “smooth muscle tissue”, “porcine” for “porcine aorta”, “3.3” for “25”
as §4

[3] = 0.1 to 10 μM, rabbit iliac artery

Percent (%) inhibition of [125I]ET-1 specific binding to ETA (human ETA receptor) [%]	Percent (%) inhibition of [125I]ET-1 specific binding to ETB (human ETB receptor) [%]	125I-endothelin-1 binding inhibition D (%) to ETB (ETB receptor) [%]	Compound	effect on the isolated artery when applied alone [1]	influence on the concentration-response curve for endothelin-1 ([1]; 10 μM, added 20 minutes prior to endothelin-1, porcine coronary artery)	effect on maximum response to endothelin-1 ([1]; 10 μM, porcine coronary artery)	effect on the isolated artery when applied alone [2]	effect on maximum response to endothelin-1 [2, 3]	influence on the concentration-response curve for endothelin-1 [2, 3]	125I-endothelin-1 binding inhibition D (%) to ETA (ETA receptor) [%]
–	–	–	COc1ccc([C@H]2c3ncccc3[C@@H](c3ccc4c(c3)OCO4)[C@@H]2C(=O)O)cc1 (relative stereo) [Compound 2, (5RS,6SR,7SR)-6-Carboxy-5-(3,4-methylenedioxyphenyl)-7-(4-methoxyphenyl)cyclopenteno[1,2-b]pyridine]	showed no effects to the isolated coronary artery when applied alone	remarkably shifted the concentration-response curves of endothelin-1 to the right	did not affect the maximum response	showed no effects to the isolated iliac artery when applied alone	did not affect the maximum response	remarkably shifted the concentration-response curves of endothelin-1 to the right	–
99	80	80	COc1ccc([C@H]2c3ncccc3[C@@H](c3ccc4c(c3)OCO4)[C@@H]2C(=O)O)cc1 (relative stereo) [Compound 2-enantiomer A]	–	–	–	–	–	–	99
